Assay results reported in ChEMBL document CHEMBL1152921 (Eur J Med Chem, 2009).
The source made the active and inactive calls. No cut-off for these calls is given here. Where a SMILES comes first, the peptide text is derived from it. Bridges are numbered along the chain shown (N, C = ends). [ ]: non-standard residue; d: D form. Aic = NC1(C(=O)O)Cc2ccccc2C1

What was measured:
Rattus norvegicus [1] = assay: Activity at vasopressin V1a receptor in phenoxybenzamine-treated Wistar rat uterus assessed as induction of arterial vasopressor activity up to 0.15 mg/kg; format: functional, organism-based; set-up: dose 0.15 mg/kg
Rattus norvegicus [2] = assay: (§1) Antidiuretic activity in fasted and hydrated Wistar rat assessed as compound required to yield antidiuresis time of 60 mins required for urinary excretion of half the water load at 0.001 to 100 nmol/kg, sc administered immediately after water loading by modified Burn test; format: functional, Urine
Rattus norvegicus [3] = assay: (§2) Antidiuretic activity in fasted and hydrated Wistar rat assessed as compound required to yield antidiuresis time of 200 mins required for urinary excretion of half the water load at 0.001 to 100 nmol/kg, sc administered immediately after water loading by modified Burn test; format: functional, Urine
Rattus norvegicus [4] = assay: as §1, with “compound potency” for “compound required”, “test relative to 1-deamino-8-D-arginine vasopressin” for “test”; format: functional, Urine
Rattus norvegicus [5] = assay: as §2, with “compound potency” for “compound required”, “test relative to 1-deamino-8-D-arginine vasopressin” for “test”; format: functional, Urine
Oxytocin receptor = target: T1, Oxytocin receptor (Rattus norvegicus, UniProt P70536); format: functional, tissue-based, Wistar, Uterus
T1 sequence (P70536 whole entry): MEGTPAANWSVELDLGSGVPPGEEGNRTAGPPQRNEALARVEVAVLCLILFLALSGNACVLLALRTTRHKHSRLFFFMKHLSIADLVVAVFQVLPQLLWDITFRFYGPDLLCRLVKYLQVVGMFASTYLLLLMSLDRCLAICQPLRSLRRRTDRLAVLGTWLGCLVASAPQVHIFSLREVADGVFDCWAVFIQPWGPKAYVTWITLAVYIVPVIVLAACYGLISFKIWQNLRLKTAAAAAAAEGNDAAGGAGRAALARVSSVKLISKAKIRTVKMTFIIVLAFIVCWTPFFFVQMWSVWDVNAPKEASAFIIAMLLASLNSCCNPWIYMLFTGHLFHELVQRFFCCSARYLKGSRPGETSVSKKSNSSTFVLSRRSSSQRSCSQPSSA

Vasopressin V1a receptor = Vasopressin V1a receptor (Rattus norvegicus, UniProt P30560); assay: Antagonist activity at vasopressin V1a receptor in phenoxybenzamine-treated Wistar rat uterus assessed as inhibition of vasopressin-induced arterial vasopressor activity treated 1 min prior to vasopressin challenge; format: functional, tissue-based; conditions: for Kb: read-out: pA2 (converted)
[6] = target: Vasopressin V1a receptor (Rattus norvegicus) (UniProt P30560); assay: Agonist activity at vasopressin V1a receptor in phenoxybenzamine-treated Wistar rat uterus assessed as arterial vasopressor activity; format: functional, tissue-based
[7] = Volume of distribution in Wistar rat; format: ADME, organism-based; conditions: in vivo

Chain of Vasopressin V1a receptor (P30560 whole entry): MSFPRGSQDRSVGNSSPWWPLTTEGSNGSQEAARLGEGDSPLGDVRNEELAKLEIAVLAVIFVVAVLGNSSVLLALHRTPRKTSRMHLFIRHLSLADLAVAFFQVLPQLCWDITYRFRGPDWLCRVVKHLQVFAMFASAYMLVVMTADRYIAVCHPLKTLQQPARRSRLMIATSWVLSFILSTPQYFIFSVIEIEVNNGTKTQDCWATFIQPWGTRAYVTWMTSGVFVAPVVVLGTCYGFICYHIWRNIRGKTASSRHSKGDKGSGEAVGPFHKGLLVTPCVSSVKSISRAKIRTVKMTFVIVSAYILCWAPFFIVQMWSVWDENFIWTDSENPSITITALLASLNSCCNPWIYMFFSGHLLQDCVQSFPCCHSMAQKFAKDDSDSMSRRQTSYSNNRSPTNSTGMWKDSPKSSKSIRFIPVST
Chain of Vasopressin V1a receptor (Rattus norvegicus) (P30560 whole entry, looked up): as the sequence (P30560 whole entry) above

| SMILES | Activity (Rattus norvegicus [1]) | Activity (Rattus norvegicus [2]) | Activity (Rattus norvegicus [3]) | Activity (Rattus norvegicus [4]) | Activity (Rattus norvegicus [5]) | pA2 (Oxytocin receptor) | pA2 (Vasopressin V1a receptor) | Kb (Vasopressin V1a receptor) | Activity [6] | Vd [7] |
| --- | --- | --- | --- | --- | --- | --- | --- | --- | --- | --- |
| N=C(N)NCCC[C@H](NC(=O)[C@@H]1CCCN1C(=O)[C@@H]1CSSCCC(=O)N[C@H](C(c2ccccc2)c2ccccc2)C(=O)N[C@@H](Cc2ccccc2)C(=O)N[C@@H](CCC(N)=O)C(=O)N[C@@H](CC(N)=O)C(=O)N1)C(=O)NCC(N)=O | inactive | 4500 IU/mg | 200000 IU/mg | 100% | 80% | – | – | – | – | – |
| N=C(N)NCCC[C@H](NC(=O)[C@@H]1CCCN1C(=O)[C@@H]1CSSC2(CCCCC2)CC(=O)N[C@H](C(c2ccccc2)c2ccccc2)C(=O)N[C@@H](Cc2ccccc2)C(=O)N[C@@H](CCC(N)=O)C(=O)N[C@@H](CC(N)=O)C(=O)N1)C(=O)NCC(N)=O | – | – | – | – | – | 6.83 | 7.4 | – | – | – |
| CC(C)[C@@H]1NC(=O)[C@H](Cc2ccccc2)NC(=O)[C@@H](C(c2ccccc2)c2ccccc2)NC(=O)CCSSC[C@@H](C(=O)N2CCC[C@H]2C(=O)N[C@H](CCCNC(=N)N)C(=O)NCC(N)=O)NC(=O)[C@H](CC(N)=O)NC1=O | – | 9000 IU/mg | 450000 IU/mg | 200% | 150% | – | – | > 1.58 µM | – | – |
| CC(C)[C@@H]1NC(=O)[C@H](Cc2ccccc2)NC(=O)[C@H](C(c2ccccc2)c2ccccc2)NC(=O)CCSSC[C@@H](C(=O)N2CCC[C@H]2C(=O)N[C@H](CCCNC(=N)N)C(=O)NCC(N)=O)NC(=O)[C@H](CC(N)=O)NC1=O (stereo in doubt; form 1) [listing 1 of 2 here] | – | 100 IU/mg | 4500 IU/mg | 2.2% | 1.8% | – | – | – | – | – |
| N=C(N)NCCC[C@@H](NC(=O)[C@@H]1CCCN1C(=O)[C@@H]1CSSCCC(=O)N[C@@H](Cc2ccc(O)cc2)C(=O)N[C@@H](Cc2ccccc2)C(=O)N[C@@H](CCC(N)=O)C(=O)N[C@@H](CC(N)=O)C(=O)N1)C(=O)NCC(N)=O [DESMOPRESSIN] | – | 800 IU/mg | – | 100% | 100% | – | – | – | – | – |
| CC(C)[C@@H]1NC(=O)[C@H](Cc2ccccc2)NC(=O)[C@H](C(c2ccccc2)c2ccccc2)NC(=O)CCSSC[C@@H](C(=O)N2CCC[C@H]2C(=O)N[C@@H](CCCNC(=N)N)C(=O)NCC(N)=O)NC(=O)[C@H](CC(N)=O)NC1=O | inactive | 100 IU/mg | 20000 IU/mg | 2.2% | 8% | – | – | – | – | – |
| CC(C)[C@@H]1NC(=O)[C@H](Cc2ccccc2)NC(=O)[C@H](C(c2ccccc2)c2ccccc2)NC(=O)CCSSC[C@@H](C(=O)N2CCC[C@H]2C(=O)N[C@H](CCCNC(=N)N)C(=O)NCC(N)=O)NC(=O)[C@H](CC(N)=O)NC1=O (stereo in doubt; form 1) [listing 2 of 2 here] | inactive | – | – | – | – | – | – | – | – | – |
| N=C(N)NCCCC(NC(=O)[C@@H]1CCCN1C(=O)[C@@H]1CSSCCC(=O)N[C@@H](Cc2ccc(O)cc2)C(=O)N[C@@H](Cc2ccccc2)C(=O)N[C@@H](CCC(N)=O)C(=O)N[C@@H](CC(N)=O)C(=O)N1)C(=O)NCC(N)=O (single isomer, unassigned) [DESMOPRESSIN] | – | 1300 IU/mg | – | 73.9% | 97.3% | – | – | – | – | – |
| N=C(N)NCCC[C@@H](NC(=O)[C@@H]1CCCN1C(=O)[C@@H]1CSSCCC(=O)N[C@@H](C(c2ccccc2)c2ccccc2)C(=O)N[C@@H](Cc2ccccc2)C(=O)N[C@@H](CCC(N)=O)C(=O)N[C@@H](CC(N)=O)C(=O)N1)C(=O)NCC(N)=O | inactive | 30 IU/mg | 20000 IU/mg | 0.7% | 8% | – | – | – | – | – |
| N=C(N)NCCC[C@H](NC(=O)[C@@H]1CCCN1C(=O)[C@@H]1CSSC2(CCCCC2)CC(=O)N[C@@H](C(c2ccccc2)c2ccccc2)C(=O)N[C@@H](Cc2ccccc2)C(=O)N[C@@H](CCC(N)=O)C(=O)N[C@@H](CC(N)=O)C(=O)N1)C(=O)NCC(N)=O | inactive | <4.5 IU/mg | <4.5 IU/mg | <0.1% | <0.1% | – | – | – | – | – |
| N=C(N)NCCC[C@H](NC(=O)[C@@H]1CCCN1C(=O)[C@@H]1CSSC[C@H](N)C(=O)NC2(Cc3ccccc3C2)C(=O)N[C@@H](Cc2ccccc2)C(=O)N[C@@H](CCC(N)=O)C(=O)N[C@@H](CC(N)=O)C(=O)N1)C(=O)NCC(N)=O (H-C[Aic]FQNCPRG-NH2; disulfide 1-6) | – | 450 IU/mg | 45000 IU/mg | 10% | 18% | – | – | – | 9.4 IU/mg | – |
| NC(=O)CC[C@@H]1NC(=O)[C@H](Cc2ccccc2)NC(=O)[C@H](Cc2ccc(O)cc2)NC(=O)[C@@H](N)CSSC[C@@H](C(=O)N2CCC[C@H]2C(=O)N[C@H](CCCN=C(N)N)C(=O)NCC(N)=O)NC(=O)[C@H](CC(N)=O)NC1=O | – | 111 IU/mg | – | 23.2% | 1.7% | – | – | – | – | – |
| N=C(N)NCCC[C@@H](NC(=O)[C@@H]1CCCN1C(=O)[C@@H]1CSSCCC(=O)N[C@H](C(c2ccccc2)c2ccccc2)C(=O)N[C@@H](Cc2ccccc2)C(=O)N[C@@H](CCC(N)=O)C(=O)N[C@@H](CC(N)=O)C(=O)N1)C(=O)NCC(N)=O | – | 9000 IU/mg | 225000 IU/mg | 200% | 100% | – | – | – | – | – |
| N=C(N)NCCC[C@H](NC(=O)[C@@H]1CCCN1C(=O)[C@@H]1CSSCCC(=O)NC(C(c2ccccc2)c2ccccc2)C(=O)N[C@@H](Cc2ccccc2)C(=O)N[C@@H](CCC(N)=O)C(=O)N[C@@H](CC(N)=O)C(=O)N1)C(=O)NCC(N)=O (single isomer, unassigned) | – | 450 IU/mg | 45000 IU/mg | 10% | 18% | – | – | – | – | – |
| CC(C)[C@@H]1NC(=O)[C@H](Cc2ccccc2)NC(=O)[C@@H](C(c2ccccc2)c2ccccc2)NC(=O)CCSSC[C@@H](C(=O)N2CCC[C@H]2C(=O)N[C@@H](CCCNC(=N)N)C(=O)NCC(N)=O)NC(=O)[C@H](CC(N)=O)NC1=O (stereo in doubt) | – | – | – | – | – | – | – | > 1.58 µM | – | – |
| N=C(N)NCCC[C@@H](NC(=O)[C@@H]1CCCN1C(=O)[C@@H]1CSSC[C@H](N)C(=O)N[C@@H](C(c2ccccc2)c2ccccc2)C(=O)N[C@@H](Cc2ccccc2)C(=O)N[C@@H](CCC(N)=O)C(=O)N[C@@H](CC(N)=O)C(=O)N1)C(=O)NCC(N)=O | inactive | 30 IU/mg | 3000 IU/mg | 0.7% | 1.2% | – | – | – | – | – |
| CC(C)[C@@H]1NC(=O)[C@H](Cc2ccccc2)NC(=O)[C@H](Cc2ccc(O)cc2)NC(=O)[C@@H](N)CSSC[C@@H](C(=O)N2CCC[C@H]2C(=O)N[C@@H](CCCNC(=N)N)C(=O)NCC(N)=O)NC(=O)[C@H](CC(N)=O)NC1=O (H-CYFVNCPRG-NH2; disulfide 1-6) | – | 758 IU/mg | – | – | – | – | – | – | 32 IU/mg | – |
| CC(C)[C@@H]1NC(=O)[C@H](Cc2ccccc2)NC(=O)[C@H](C(c2ccccc2)c2ccccc2)NC(=O)CCSSC[C@@H](C(=O)N2CCC[C@H]2C(=O)N[C@H](CCCNC(=N)N)C(=O)NCC(N)=O)NC(=O)[C@H](CC(N)=O)NC1=O (stereo in doubt; form 2) | – | 4500 IU/mg | 450000 IU/mg | 100% | 150% | – | – | – | – | – |
| N=C(N)NCCC[C@H](NC(=O)[C@@H]1CCCN1C(=O)[C@@H]1CSSC[C@H](N)C(=O)N[C@@H](Cc2ccc(O)cc2)C(=O)N[C@@H](Cc2ccccc2)C(=O)N[C@@H](CCC(N)=O)C(=O)N[C@@H](CC(N)=O)C(=O)N1)C(=O)NCC(N)=O [VASOPRESSIN] | – | 450 IU/mg | 450 IU/mg | 10% | 0.125% | – | – | – | – | 0.067 L/kg |
